Converted amounts (≈) assume the structure as drawn.
Experiments:
[1] = Compound solubility in water
acid ceramidase = molecular target: T1, acid ceramidase (Homo sapiens, UniProt Q13510); assay: Acid ceramidase inhibition, biochemical fluorescent assay with cell lysates overexpressing acid ceramidase, substrate Rbm14-12; settings: substrate Rbm14-12 6.3 μM
T1 construct: Cell lysates overexpressing acid ceramidase were used as the enzyme source; expressed in transfected cells
T1 sequence (Q13510 22-395): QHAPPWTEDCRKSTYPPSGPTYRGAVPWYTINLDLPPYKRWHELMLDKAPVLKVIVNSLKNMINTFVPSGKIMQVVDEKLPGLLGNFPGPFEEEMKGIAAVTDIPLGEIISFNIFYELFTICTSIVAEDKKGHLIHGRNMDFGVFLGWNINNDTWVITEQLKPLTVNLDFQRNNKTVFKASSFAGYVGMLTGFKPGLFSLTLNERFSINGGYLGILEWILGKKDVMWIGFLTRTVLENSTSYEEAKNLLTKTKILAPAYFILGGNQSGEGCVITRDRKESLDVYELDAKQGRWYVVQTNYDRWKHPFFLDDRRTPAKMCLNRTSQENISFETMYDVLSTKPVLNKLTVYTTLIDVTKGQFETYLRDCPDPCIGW
In short: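 IC50 derived by four-parameter fitting of fluorescence (ex360 nm, em446 nm) produced after 1 hr in methanol/NaIO4/glycine stop buffer, pH 10.6. Reaction: 6.3 μM Rbm14-12, 1 hr RT, following 1 hr RT compound preincubation with 10 μg overexpressing-cell lysate protein in pH 4.5 NaAC/NaCl buffer.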

[2] = pH 4.5, 1 hr preincubation at RT

| SMILES | solubility [1] [µg/mL] | IC50 (acid ceramidase; pH 4.5) [nM] | IC50 (acid ceramidase; [2]) [nM] |
| --- | --- | --- | --- |
| COc1nc2cc(F)c(N3CCOCC3)cc2n1C(=O)NCCCCc1ccccc1 [Example 214, 5-Fluoro-2-methoxy-6-morpholino-N-(4-phenylbutyl)-1H-benzo[d]imidazole-1-carboxamide] | 0.3 (≈ 0.703 µM) | < 200 |  |
| COc1ccccc1C#CCNC(=O)n1cnc2c(N3CCN(C)CC3)cccc21 [Example 341, N-(3-(2-Methoxyphenyl)prop-2-yn-1-yl)-4-(4-methylpiperazin-1-yl)-1H-benzo[d]imidazole-1-carboxamide] | 20 (≈ 49.6 µM) |  | < 200 |
| CN1CC(N2CCN(c3cccc4c3ncn4C(=O)NCCC3CCC(F)(F)C3)CC2)C1 (stereo not shown) [Example 287, N-(2-(3,3-Difluorocyclopentyl)ethyl)-4-(4-(1-methylazetidin-3-yl)piperazin-1-yl)-1H-benzo[d]imidazole-1-carboxamide] | 36 (≈ 80.6 µM) | 200 to 1000 |  |
| COc1ccnc2c1ncn2C(=O)NCCc1ccccc1 [Example 50, 7-Methoxy-N-phenethyl-3H-imidazo[4,5-b]pyridine-3-carboxamide] | 9.5 (≈ 32.1 µM) |  | 200 to 1000 |
| Cn1c(=O)n(C(=O)NCCc2ccccc2)c2cc(-c3cncnc3)ccc21 [Example 32a, 3-Methyl-2-oxo-N-phenethyl-6-(pyrimidin-5-yl)-2,3-dihydro-1H-benzo[d]imidazole-1-carboxamide] | 0.9 (≈ 2.41 µM) |  | > 1000 |
| COc1cccc2c1ncn2C(=O)NCCC1CC1 [Example 121, N-(2-Cyclopropylethyl)-4-methoxy-1H-benzo[d]imidazole-1-carboxamide] | 22.6 (≈ 87.2 µM) |  | 200 to 1000 |
| CN1CCN(c2cccc3c2ncn3C(=O)NCCc2ccccc2)CC1 [Example 324, 4-(4-Methylpiperazin-1-yl)-N-phenethyl-1H-benzo[d]imidazole-1-carboxamide] | 11 (≈ 30.3 µM) | 200 to 1000 |  |
| CCCCCNC(=O)n1cnc2ccccc21 [Example 23, N-Pentyl-1H-benzo[d]imidazole-1-carboxamide] | 13.3 (≈ 57.5 µM) |  | < 200 |
| CN1CCC2(CC1)CN(c1cccc3c1ncn3C(=O)NCCOc1ccccc1)C2 [Example 350, 4-(7-Methyl-2,7-diazaspiro[3.5]nonan-2-yl)-N-(2-phenoxyethyl)-1H-benzo[d]imidazole-1-carboxamide] | 35 (≈ 83.4 µM) |  | < 200 |
| CCN1CCC(c2cccc3c2ncn3C(=O)NCCCc2ccccc2)C1 (stereo not shown) [Example 261, 4-(1-Ethylpyrrolidin-3-yl)-N-(3-phenylpropyl)-1H-benzo[d]imidazole-1-carboxamide] | 26 (≈ 69.1 µM) | < 200 |  |
| CN1CC(c2cccc3c2ncn3C(=O)NCCCc2ccccc2)C1 [Example 270, 4-(1-Methylazetidin-3-yl)-N-(3-phenylpropyl)-1H-benzo[d]imidazole-1-carboxamide] | 32 (≈ 91.8 µM) | < 200 |  |
| CC(C)C#CCNC(=O)n1cnc2c(N3CC4CC3CN4C)cccc21 (stereo not shown) [Example 301, 4-(5-Methyl-2,5-diazabicyclo[2.2.1]heptan-2-yl)-N-(4-methylpent-2-ynyl)-1H-benzo[d]imidazole-1-carboxamide] | 34 (≈ 96.7 µM) | 200 to 1000 |  |
| CC(C)CCNC(=O)n1c(OCCN(C)C)nc2ccccc21 [Example 120, 2-(2-(Dimethylamino)ethoxy)-N-iso-pentyl-1H-benzo[d]imidazole-1-carboxamide] | 21 (≈ 66 µM) |  | < 200 |
| CC(C)C#CCCNC(=O)n1cnc2c(N3CCN(C)CC3)cccc21 [Example 303, N-(5-Methylhex-3-yn-1-yl)-4-(4-methylpiperazin-1-yl)-1H-benzo[d]imidazole-1-carboxamide] | 28 (≈ 79.2 µM) | 200 to 1000 |  |
| CC(C)Oc1nc2ccccc2n1C(=O)NCCc1ccccc1 [Example 35, 2-iso-Propoxy-N-phenethyl-1H-benzo[d]imidazole-1-carboxamide] | 0.7 (≈ 2.16 µM) |  | < 200 |
| O=C(NCCc1cccnc1)n1cnc2ccccc21 [Example 22, N-(2-(Pyridin-3-yl)ethyl)-1H-benzo[d]imidazole-1-carboxamide] | 12.9 (≈ 48.4 µM) |  | 200 to 1000 |
| CN1CCN(c2cccc3c2ncn3C(=O)NCc2ccc3c(c2)OCO3)CC1 [Example 346, N-(Benzo[d][1,3]dioxol-5-ylmethyl)-4-(4-methylpiperazin-1-yl)-1H-benzo[d]imidazole-1-carboxamide] | 11 (≈ 28 µM) |  | < 200 |
| N#CCCN1CCN(c2cccc3c2ncn3C(=O)NCCCc2ccccc2)CC1 [Example 278, 4-(4-(2-Cyanoethyl)piperazin-1-yl)-N-(3-phenylpropyl)-1H-benzo[d]imidazole-1-carboxamide] | 18 (≈ 43.2 µM) | < 200 |  |
| O=C(NCCCc1ccccc1)n1cnc2c(N3CCN(C4COC4)CC3)cccc21 [Example 286, 4-(4-(Oxetan-3-yl)piperazin-1-yl)-N-(3-phenylpropyl)-1H-benzo[d]imidazole-1-carboxamide] | 24 (≈ 57.2 µM) | < 200 |  |
| CC(C)(C)CCCNC(=O)n1cnc2c(N3CCOCC3)cccc21 [Example 186, N-(4,4-Dimethylpentyl)-4-morpholino-1H-benzo[d]imidazole-1-carboxamide] | 10 (≈ 29 µM) | < 200 |  |
| Cc1ccc(CNC(=O)n2cnc3c(N4CCN(C)CC4)cccc32)cc1 [Example 323, N-(4-Methylbenzyl)-4-(4-methylpiperazin-1-yl)-1H-benzo[d]imidazole-1-carboxamide] | 16 (≈ 44 µM) | < 200 |  |
| CN1CC(N2CCN(c3cccc4c3ncn4C(=O)NCCC#Cc3ccccc3)CC2)C1 [Example 361] | 24 (≈ 54.2 µM) |  | < 200 |
| CN1CCN(c2ccc3ncn(C(=O)NCCc4ccccc4)c3c2)CC1 [Example 15b, 6-(4-Methylpiperazin-1-yl)-N-phenethyl-1H-benzo[d]imidazole-1-carboxamide] | 22.9 (≈ 63 µM) |  | < 200 |
| COc1nc2c(N3CCOCC3)cc(F)cc2n1C(=O)NCCC(C)C [Example 212, 6-Fluoro-N-iso-pentyl-2-methoxy-4-morpholino-1H-benzo[d]imidazole-1-carboxamide] | 8 (≈ 22 µM) | 200 to 1000 |  |

Continued, values first:

| solubility [1] [µg/mL] | IC50 (acid ceramidase; pH 4.5) [nM] | IC50 (acid ceramidase; [2]) [nM] | SMILES |
| --- | --- | --- | --- |
| 26 (≈ 66.4 µM) | < 200 |  | C[C@@H](CCNC(=O)n1cnc2c(N3CCN(C)CC3)cccc21)c1ccccc1 [Example 253a, (S)-4-(4-Methylpiperazin-1-yl)-N-(3-phenylbutyl)-1H-benzo[d]imidazole-1-carboxamide] |
| 22.2 (≈ 68.2 µM) |  | 200 to 1000 | COc1cc2c(cc1-c1cncnc1)ncn2C(=O)NCC(C)C [Example 79a, N-iso-Butyl-6-methoxy-5-(pyrimidin-5-yl)-1H-benzo[d]imidazole-1-carboxamide] |
| 27 (≈ 59.4 µM) | 200 to 1000 |  | COc1nc2cc(N3CCOCC3)ccc2n1C(=O)NCCCCn1ccc(C(C)(C)C)n1 [Example 188a, N-(4-(3-(tert-Butyl)-1H-pyrazol-1-yl)butyl)-2-methoxy-5-morpholino-1H-benzo[d]imidazole-1-carboxamide] |
| 42 (≈ 94.9 µM) | 200 to 1000 |  | COc1nc2cc(F)c(N3CCN(C4CN(C)C4)CC3)cc2n1C(=O)NCC#CC(C)C [Example 320b, 5-fluoro-2-methoxy-6-(4-(1-methylazetidin-3-yl)piperazin-1-yl)-N-(4-methylpent-2-yn-1-yl)-1H-benzo[d]imidazole-1-carboxamide] |
| 7.4 (≈ 20.4 µM) |  | < 200 | CC(C)CNC(=O)n1cnc2cc(C(F)(F)F)c(-c3cncnc3)cc21 [Example 77b, N-iso-butyl-6-(pyrimidin-5-yl)-5-(trifluoromethyl)-1H-benzo[d]imidazole-1-carboxamide] |
| 4 (≈ 11.2 µM) | 200 to 1000 |  | CC(C)CCNC(=O)n1cnc2c(N3CCO[C@H](C(C)C)C3)cccc21 [Example 172b, (R)—N-iso-pentyl-4-(2-iso-propylmorpholino)-1H-benzo[d]imidazole-1-carboxamide] |
| 26.7 (≈ 69.3 µM) |  | < 200 | CCCCNC(=O)n1cnc2ccc(N3CCC(N4CCOCC4)CC3)cc21 [Example 101a, N-Butyl-6-(4-morpholinopiperidin-1-yl)-1H-benzo[d]imidazole-1-carboxamide] |
| 5 (≈ 12.5 µM) | < 200 |  | COc1nc2cc(N3CCOCC3)c(F)cc2n1C(=O)NCCc1ccccc1 [Example 334b, 6-fluoro-2-methoxy-5-morpholino-N-(2-phenethyl)-1H-benzo[d]imidazole-1-carboxamide] |
| 26 (≈ 57.2 µM) | 200 to 1000 |  | COc1nc2ccc(N3CCOCC3)cc2n1C(=O)NCCCCn1ccc(C(C)(C)C)n1 [Example 188b, N-(4-(3-(tert-butyl)-1H-pyrazol-1-yl)butyl)-2-methoxy-6-morpholino-1H-benzo[d]imidazole-1-carboxamide] |
| 3 (≈ 8.01 µM) | 200 to 1000 |  | COc1nc2cc(F)c(N3CCOCC3)cc2n1C(=O)NCC#CC(C)C [Example 321b, 5-fluoro-2-methoxy-N-(4-methylpent-2-yn-1-yl)-6-morpholino-1H-benzo[d]imidazole-1-carboxamide] |
| 54 (≈ 165 µM) |  | < 200 | CCCCNC(=O)n1c(OC)nc2nc(-c3cncnc3)ccc21 [Example 85b, N-butyl-2-methoxy-5-(pyrimidin-5-yl)-1H-imidazo[4,5-b]pyridine-1-carboxamide] |
